Literature values as cited in patent EP1077694B1, “ARYL NITRONE THERAPEUTICS FOR THE TREATMENT OF INFLAMMATORY BOWEL DISEASE” (Renovis, Inc., priority 1998, dated 1999).

Tested on: senescence-accelerated mice

## CC(C)(C)[N+]([O-])=Cc1ccccc1 [PBN, α-phenyl-t-butyl nitrone]
  increase the life span: one third
